From ChEMBL document CHEMBL1201862, “PubChem BioAssay data set” (2004)
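Exposure lasted 48 hours, with cells grown in 96-well plates and compounds tested at five concentrations. Here, GI50 denotes the concentration required for 50% inhibition of growth.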 Active and inactive are the calls of the source. No stated cut-off is given here; in the data, active = GI50 up to about 1.1 µM and inactive = higher.

Experiments:
Test in all cases: growth of human tumour cells (NCI), 48 h
[1] = test system: 786-0
[2] = test system: A498
[3] = test system: CCRF-CEM
[4] = test system: HCC 2998
[5] = test system: HT-29
[6] = test system: IGROV-1
[7] = test system: KM12
[8] = test system: LOX IMVI
[9] = test system: M14
[10] = test system: OVCAR-3
[11] = test system: SF-268
[12] = test system: SF-295
[13] = test system: SF-539
[14] = test system: SK-MEL-2
[15] = test system: SN12C
[16] = test system: SNB-75
[17] = test system: U-251
[18] = test system: MCF7
[19] = test system: PC-3

| Compound | GI50 [1] | GI50 [2] | GI50 [3] | GI50 [4] | GI50 [5] | GI50 [6] | GI50 [7] | GI50 [8] | GI50 [9] | GI50 [10] | GI50 [11] | GI50 [12] | GI50 [13] | GI50 [14] | GI50 [15] | GI50 [16] | GI50 [17] | GI50 [18] | GI50 [19] |
| --- | --- | --- | --- | --- | --- | --- | --- | --- | --- | --- | --- | --- | --- | --- | --- | --- | --- | --- | --- |
| CN(C=O)/C=C/c1cc(O)ccc1O | 18.5 µM (inactive) | > 68.2 µM (inactive) | 18.7 µM (inactive) | > 63 µM (inactive) | 32.6 µM (inactive) | 51.3 µM (inactive) | 63.7 µM (inactive) | 23.2 µM (inactive) | 41.3 µM (inactive) | 18.2 µM (inactive) | 25.8 µM (inactive) | 32.5 µM (inactive) | 38.3 µM (inactive) | 35.6 µM (inactive) | 20.9 µM (inactive) | 21.7 µM (inactive) | 39.6 µM (inactive) |  |  |
| O=C1c2ccccc2C(=O)N1C/C=N/NS(=O)(=O)c1cccc([N+](=O)[O-])c1 | > 100 µM (inactive) | > 100 µM (inactive) | > 100 µM (inactive) | > 100 µM (inactive) | > 100 µM (inactive) | > 100 µM (inactive) | > 100 µM (inactive) | > 100 µM (inactive) | > 100 µM (inactive) |  | > 100 µM (inactive) | > 100 µM (inactive) | > 100 µM (inactive) | > 100 µM (inactive) | > 100 µM (inactive) | > 100 µM (inactive) | > 100 µM (inactive) |  |  |
| CN1CCN(c2n[nH]c(=O)c3c2nnn3Cc2ccccc2)CC1 | > 100 µM (inactive) |  | > 100 µM (inactive) | > 100 µM (inactive) | 38 µM (inactive) |  | > 100 µM (inactive) | > 100 µM (inactive) | > 100 µM (inactive) | > 100 µM (inactive) | > 100 µM (inactive) | > 100 µM (inactive) |  | > 100 µM (inactive) | 15.5 µM (inactive) | > 100 µM (inactive) | > 100 µM (inactive) | > 100 µM (inactive) | 5.89 µM (inactive) |
| C=C1C(=O)OC2/C=C(/C)C3CC(O)C(C)(CC(OC(=O)/C(C)=C/C)C12)O3 (centres undefined) | 3.29 µM (inactive) | 10.4 µM (inactive) | 0.508 µM (active) | 13.2 µM (inactive) | 3.76 µM (inactive) | 5.26 µM (inactive) | 3.33 µM (inactive) | 1.76 µM (inactive) | 2.91 µM (inactive) | 3.78 µM (inactive) | 4.2 µM (inactive) | > 39.4 µM (inactive) | 2.14 µM (inactive) | 2.49 µM (inactive) | 3.27 µM (inactive) | 9.04 µM (inactive) | 9.04 µM (inactive) |  |  |
| COC(=O)[C@H]1C=C[C@@H](C)n2c(=O)c3ccccc3c(=O)n21 | > 100 µM (inactive) | > 100 µM (inactive) | > 100 µM (inactive) | > 100 µM (inactive) | > 100 µM (inactive) | > 100 µM (inactive) | > 100 µM (inactive) | > 100 µM (inactive) | > 100 µM (inactive) | > 100 µM (inactive) | > 100 µM (inactive) | > 100 µM (inactive) | > 100 µM (inactive) | > 100 µM (inactive) | > 100 µM (inactive) | > 100 µM (inactive) | > 100 µM (inactive) |  |  |
| [N-]=[N+]=Nc1ncnc2c1sc(=S)n2-c1ccccc1 | > 100 µM (inactive) | 78.9 µM (inactive) | > 100 µM (inactive) | > 100 µM (inactive) | > 100 µM (inactive) | > 100 µM (inactive) | > 100 µM (inactive) | > 100 µM (inactive) | > 100 µM (inactive) | > 100 µM (inactive) | > 100 µM (inactive) | > 100 µM (inactive) | > 100 µM (inactive) | > 100 µM (inactive) | > 100 µM (inactive) | > 100 µM (inactive) | > 100 µM (inactive) |  |  |
| COC(CC1(OC)OC(=O)C=C1N)OC (centres undefined) | > 100 µM (inactive) | > 100 µM (inactive) | > 100 µM (inactive) | > 100 µM (inactive) | > 100 µM (inactive) | > 100 µM (inactive) | > 100 µM (inactive) | > 100 µM (inactive) | > 100 µM (inactive) | > 100 µM (inactive) | > 100 µM (inactive) | > 100 µM (inactive) | > 100 µM (inactive) | > 100 µM (inactive) | > 100 µM (inactive) | 76.7 µM (inactive) | > 100 µM (inactive) |  |  |
| CCCCCCC(O)C/C=C/CCCCCC/C(C(=O)OC)=C(/O)C(=O)OCC (centres undefined) | > 100 µM (inactive) | > 100 µM (inactive) | > 100 µM (inactive) | > 100 µM (inactive) | > 100 µM (inactive) | > 100 µM (inactive) | > 100 µM (inactive) | > 100 µM (inactive) | > 100 µM (inactive) | > 100 µM (inactive) | > 100 µM (inactive) | > 100 µM (inactive) | > 100 µM (inactive) | > 100 µM (inactive) | > 100 µM (inactive) | > 100 µM (inactive) | > 100 µM (inactive) |  |  |
| CC(=N/NC(N)=S)/C(C)=N/NC(N)=S | > 100 µM (inactive) |  | > 100 µM (inactive) | > 100 µM (inactive) | > 100 µM (inactive) | > 100 µM (inactive) | > 100 µM (inactive) | > 100 µM (inactive) | > 100 µM (inactive) | > 100 µM (inactive) | > 100 µM (inactive) |  | > 100 µM (inactive) | > 100 µM (inactive) | > 100 µM (inactive) | > 100 µM (inactive) |  | > 100 µM (inactive) | > 100 µM (inactive) |
| CNC1=Nc2ccc(Cl)cc2C(OP(=O)(N2CCOCC2)N2CCOCC2)=NC1 | > 100 µM (inactive) | > 100 µM (inactive) | > 100 µM (inactive) | > 100 µM (inactive) | > 100 µM (inactive) |  | > 100 µM (inactive) | > 100 µM (inactive) | > 100 µM (inactive) | > 100 µM (inactive) |  | > 100 µM (inactive) | > 100 µM (inactive) | > 100 µM (inactive) | > 100 µM (inactive) | > 100 µM (inactive) | > 100 µM (inactive) |  |  |
| COC1(C)CNCC(C)(C)NC(=O)C(C)(OC)CNCC(C)(C)NC1=O (centres undefined) | > 100 µM (inactive) | > 100 µM (inactive) | > 100 µM (inactive) | > 100 µM (inactive) | > 100 µM (inactive) | > 100 µM (inactive) | > 100 µM (inactive) | > 100 µM (inactive) | > 100 µM (inactive) | > 100 µM (inactive) | > 100 µM (inactive) | > 100 µM (inactive) | > 100 µM (inactive) | > 100 µM (inactive) | > 100 µM (inactive) | > 100 µM (inactive) | > 100 µM (inactive) |  |  |
| Nc1ncnc2c1ncn2C1OC(CSCc2ccc(Cl)cc2)C(O)C1O (centres undefined) | 34.1 µM (inactive) | 23.8 µM (inactive) | 31.3 µM (inactive) | 44.9 µM (inactive) | 22.1 µM (inactive) | 89.3 µM (inactive) | 24.2 µM (inactive) | 37.3 µM (inactive) | 17.1 µM (inactive) | 32.1 µM (inactive) | 40.1 µM (inactive) | 50.9 µM (inactive) | 29.4 µM (inactive) | 25.5 µM (inactive) | 45.7 µM (inactive) | 18.3 µM (inactive) | 66.2 µM (inactive) |  |  |
